Experiments:
murine leukemia L1210 = details: cited from earlier work; for cytotoxicity in cultured leukemia cells: comparison among the three salts
[1] = tested on: male BALB/c mice, whole body irradiation 7.5 Gy; assay: Survival of mice during 30 days following whole body gamma irradiation, compounds given before or after irradiation (Example 2); format: in vivo; details: 7.5 Gy whole body, from day 7 before or day 7 after irradiation until day 30
Source text: (§1) The survival rate of irradiated mice treated with the compounds in comparison control was used as a measure of a radioprotective effect.
The methodology followed was as described in B Hou. Z. W. Xu, C. W. Yang, Y. Gao, S. F. Zhao, C. G. Zhang: Protective effects of inosine on mice subjected to lethal total-body ionizing irradiation. J Radiat Res 48, 57-62, 2007. In brief, six-to-eight-week old male BALB/c mice obtained from the Nofer Institute of Occupational Medicine, ? ódź, Poland were used for the experiments. Whole bodies of the animals were exposed to a single irradiation (at the Military Institute of Chemistry and Radiometry) with gamma rays from the ^60Co source at 7.2 Gy/h mean dose rate to obtain the absorbed dose of 7.5 Gy per mouse. The absorbed doses were verified using thermoluminescent dosimeters implanted subcutaneously in the middle abdominal region. All the mice were maintained under specific pathogen-free conditions. Survival of the mice was assessed during 30 days following the irradiation.
The mice were divided into irradiated control group receiving no treatment, irradiated treatment group receiving MNA, irradiated treatment group receiving DMP, and irradiated treatment group receiving MAP. Each of the treatment groups was divided into two subgroups, the first group in which the animals received the tested compounds starting from day 7 before the irradiation, and the second group in which the animals received the tested compounds starting from day 7 after the irradiation.
The compounds were given dissolved in drinking water at 100 mg/kg of body weight/24 h (DMP and MAP) and 500 mg/kg of body weight (MNA)/24 h until day 30 post irradiation.

[2] = tested on: mice irradiated with lethal dose of about 7.5 Gy; assay: Survival rate of mice after whole body irradiation, MNA given before irradiation (Example 1); format: in vivo; details: whole body irradiation 7.5 Gy; 300 mg/kg per day in drinking water from the 7th day preceding irradiation, continued after; untreated group approximately 20%; FIG. 1
Experimental: as §1
The methodology used was as described by Cheda et al., Radiation Research 2004, 161, 335 (animals and irradiation).
The survival rate of mice irradiated with lethal dose of about 7.5 Gy was tested. The treatment group received 1-methylnicotinamide chloride (MNA) in drinking water at an average dose of 300 mg/kg per day every day starting from the 7th day preceding the irradiation day. The administration was continued after irradiation. The control group received no treatment.

[3] = 100 mg/kg/24 h in drinking water, FIG. 3, FIG. 4

SMILES	cytotoxicity in cultured leukemia cells (murine leukemia L1210)	protective activity (survival of mice) [1, 3]	survival rate of mice [2]	concentration at which activity was observed (murine leukemia L1210; L1210 cells)	protective activity (survival of mice) ([1]; 500 mg/kg/24 h in drinking water, FIG. 2)
C[n+]1cccc([N+](=O)[O-])c1.[Cl-] [3-nitro-1-methylpyridinium chloride, 1-methyl-3-nitropyridinium chloride, reference compound]	highest cytotoxicity	–	–	–	–
Cc1cc[n+](C)cc1.[Cl-] [DMP, 1,4-dimethylpyridinium chloride]	–	exert their protective activity both when administered prior irradiation and when administered after irradiation	–	–	–
CC(=O)c1ccc[n+](C)c1.[Cl-] [MAP, 1-methyl-3-acetylpyridinium chloride]	several thousands times lower	exert their protective activity both when administered prior irradiation and when administered after irradiation	–	–	–
C[n+]1cccc(C(N)=O)c1 [MNA, 1-methylnicotinamide chloride]	several thousands times lower	–	about 50%	observed only at very high concentration	exert their protective activity both when administered prior irradiation and when administered after irradiation
